{
  "source": "patent US20050106171A1",
  "about": "“METHODS AND COMPOSITIONS FOR TREATING EPILEPSY” (priority 2003, published 2005)",
  "key": {"electroshocked mice": {"system": "electroshocked mice", "assay": "Anti-seizure effect on electroshocked mice", "type": "in vivo, Kunming mice", "details": "70 mice per group, dosed twice daily", "from_the_text": "Electrodes are placed at the ears of the mice to provide instant stimulation through a strong electric currency. An appropriate electric currency induces an excessive surge of electrical activity in the brain resulting in seizures to occur.\nKunming grade healthy mice, which were 50-70 days old, weighing 18-22 g, were provided by the Institute of Zoology, Chinese Academy of Sciences, Beijing, China. The electroshock device (model GJ-2, manufactured by Medical Instrument Factory, Zhejiang Medical University) was adjusted to an output frequency of 60 Hz and voltage of 125 V. An equal number of male and female mice were selected. The ears of the mice were covered with saturated saline soaked-cotton. The electrodes were then clipped onto the ears of the mice. The mice were electroshocked three times for 0.3 seconds at an interval of 10 seconds. Mice with seizure activity were then divided into four groups, each group containing 70 mice: the test group (AY), the control yeast group (NY), the positive control group (CK2) and negative control group (CK1). Each mouse in the test, control yeast and negative control groups was administered twice daily 0.4 ml of the activated yeast composition, the control yeast composition, and saline, respectively, for 1 week. Each mouse in the positive control group was administered twice daily 15 mg/kg of phenobarbital for 1 week.\nOn each day, the mice were electroshocked once for 0.3 seconds. The number of mice with seizure activity were monitored as illustrated in Table 2."}, "[1]": {"system": "rats induced with cardiazol", "assay": "Anti-seizure effect of rats induced with cardiazol", "type": "in vivo, Wistar rats", "details": "day 7, cardiazol 70 mg/kg subcutaneous 30 minutes after last dose; dosed twice daily for 1 week; 20 rats per group", "from_the_text": "Cardiazol induces seizure activity through intensifying excitatory synaptic activity of the brain. At the appropriate dose, cardiazol induces epileptic bursts that occur spontaneously.\nAn equal number of female and male Wistar rats that were […], weighing 200-220 g were provided by the Chinese Academy of Military Medical Sciences, Beijing, China. The rats were divided into four groups, each containing 20 rats: the test group (AY), the control yeast group (NY), the positive control group (CK2) and negative control group (CK1). Each rat in the test, control yeast and negative control groups was administered twice daily 0.6 ml of the activated yeast composition, the control yeast composition, and saline, respectively, for 1 week. Each mouse in the positive group was administered twice daily 0.04 g/kg (body weight) of phenobarbital (dissolved in 0.6 ml saline) for 1 week.\nOn day 7, 30 minutes after administering the last dosage of the above compositions, each group was administered by subcutaneous injection 70 mg/kg (body weight) of cardiazol (prepared as a 5% cardiazol solution in saline). The number of seizures occurred, incubation time (time between completion of injection and first seizure) and life span after injection was recorded immediately thereafter as shown in Table 3."}},
  "data": [
    {"smiles": "CCC1(c2ccccc2)C(=O)NC(=O)NC1=O", "note": "[CK2, phenobarbital]", "values": [
      {"measurement": "% mice anti-seizure", "setting": "electroshocked mice; Day 1", "value": 15.7, "unit": "%"},
      {"measurement": "No. mice with seizure activity", "setting": "electroshocked mice; Day 1, intragastric, electroshocked once for 0.3 seconds each day", "value": 59},
      {"measurement": "% mice anti-seizure", "setting": "electroshocked mice; Day 2", "value": 31.4, "unit": "%"},
      {"measurement": "No. mice with seizure activity", "setting": "electroshocked mice; Day 2", "value": 48},
      {"measurement": "% mice anti-seizure", "setting": "electroshocked mice; Day 3", "value": 20, "unit": "%"},
      {"measurement": "No. mice with seizure activity", "setting": "electroshocked mice; Day 3", "value": 56},
      {"measurement": "% mice anti-seizure", "setting": "electroshocked mice; Day 4", "value": 21.4, "unit": "%"},
      {"measurement": "No. mice with seizure activity", "setting": "electroshocked mice; Day 4", "value": 55},
      {"measurement": "% mice anti-seizure", "setting": "electroshocked mice; Day 5", "value": 17.1, "unit": "%"},
      {"measurement": "No. mice with seizure activity", "setting": "electroshocked mice; Day 5", "value": 58},
      {"measurement": "% mice anti-seizure", "setting": "electroshocked mice; Day 6", "value": 12.8, "unit": "%"},
      {"measurement": "No. mice with seizure activity", "setting": "electroshocked mice; Day 6", "value": 61},
      {"measurement": "% mice anti-seizure", "setting": "electroshocked mice; Day 7", "value": 12.9, "unit": "%"},
      {"measurement": "No. mice with seizure activity", "setting": "electroshocked mice; Day 7", "value": 61},
      {"measurement": "incubation time (time between completion of injection and first seizure)", "setting": "[1]", "value": "7.23 ± 5.32", "unit": "min"},
      {"measurement": "life span after injection", "setting": "[1]", "value": "22.76 ± 17.37", "unit": "min"}
    ]}
  ]
}
